Assay results published in patent US9504685B2, “Method for treating a pulmonary hypertension condition” (Gilead Sciences, Inc., priority 2006, dated 2016).

System: subjects with PAH
Assay: Example 2 (ARIES-1) placebo-controlled Phase III trial, efficacy
Format: in vivo, human
Settings: for change from baseline in mean 6MWD at Week 12: subjects who received supplemental oxygen
Method: The primary objective of this study was to determine the effect of ambrisentan on exercise capacity in subjects with pulmonary arterial hypertension (PAH). The secondary objectives of this study were to evaluate effects of ambrisentan on other clinical measures of PAH, as well as safety and tolerability of the study drug.
Study drug was provided in round, biconvex, oral tablets that were identical in appearance. Three strengths of active study drug containing 2.5 mg, 5 mg or 10 mg of ambrisentan were used in this study. All study drug was packaged in blister cards. Subjects were instructed to take study drug once daily (q.d.) by mouth (p.o.) in the morning, with or without food.
The maximum study duration was up to 14 weeks from the time of initial screening procedures to the final study visit (Week 12). Screening procedures were performed a maximum of 2 weeks prior to the first dose of study drug. The maximum duration of study drug treatment was 12 weeks.
Men and women, 18 years of age or older, with idiopathic PAH, PAH associated with CTD, e.g., mixed CTD, CREST syndrome, systemic sclerosis (scleroderma), overlap syndrome or systemic lupus erythematosus, or PAH associated with anorexigen use or HIV infection were enrolled in this study. Subjects were to have a documented mean PAP≧25 mmHg, PVR>3 mmHgL/min, and PCWP or LVEDP<15 mmHg. Subjects must have been able to walk a distance of at least 150 m but no more than 450 m during 2 consecutive 6MWTs to be eligible for inclusion in the study.
After a 2 week screening period, eligible subjects were stratified based on the underlying etiology of PAH (idiopathic or non-idiopathic) and were randomized to 1 of 3 treatment groups (placebo, 5 mg or 10 mg ambrisentan) in a ratio of 1:1:1. One blinded dose reduction was permitted during the 12-week treatment period in the event of study drug intolerance (e.g., 10 mg to 5 mg, 5 mg to 2.5 mg, placebo to placebo). Subjects received a daily dose of 2.5 mg ambrisentan only if they reduced from the 5 mg dose group. Subjects were assessed for efficacy and safety at monthly intervals.
Therefore, after a minimum treatment period of 4 weeks, subjects who met 2 or more of the following predefined early escape criteria may have been removed from the study: • (a) a decrease from baseline of at least 20% in 6MWD; • (b) an increase of 1 or more WHO functional class; • (c) worsening right ventricular failure (e.g., as indicated by increased jugular venous pressure, new or worsening hepatomegaly, ascites or peripheral edema); • (d) rapidly progressing cardiogenic, hepatic or renal failure; and/or • (e) refractory systolic hypotension (systolic blood pressure <85 mmHg).
The primary efficacy endpoint was change from baseline in 6MWD evaluated after 12 weeks of treatment compared to placebo.
The secondary efficacy endpoints included: • (a) time to clinical worsening of PAH, as defined by the time from randomization to the first occurrence of death, lung transplantation, hospitalization for PAH, atrial septostomy, study discontinuation due to addition of other PAH therapeutic agents, or study discontinuation due to 2 or more early escape criteria; • (b) change from baseline measured after 12 weeks of treatment compared to placebo in: • (i) WHO functional class; • (ii) SF-36® health survey physical functioning scale; • (iii) BDI immediately following exercise; and/or • (iv) an assessment of the safety and tolerability of the study drug; and • (c) change from baseline measured after 12 weeks of treatment compared to placebo in plasma levels of ET-1, BNP and cTnT. Safety Assessments
For the ITT population, subjects were considered as belonging to their randomized treatment group, regardless of the actual treatment received.
The primary efficacy endpoint was the change from baseline in 6MWD evaluated after 12 weeks of treatment compared to placebo, where the last observation was carried forward. […]

[1] = 10 mg once daily, baseline to Week 12
[2] = combined 5 mg and 10 mg groups, 12 weeks
[3] = combined 5 mg and 10 mg groups, Week 12
[4] = combined 5 mg and 10 mg groups, baseline to Week 12

COC(c1ccccc1)(c1ccccc1)[C@H](Oc1nc(C)cc(C)n1)C(=O)O [ambrisentan]
Change in SF-36 Social functioning, mean (SD) [1]: +4.11 ± 11.77
Change in SF-36 Vitality, mean (SD) [1]: +5.03 ± 10.07
Change in WHO functional class: +1 class [1]: 3 (4.5) subjects (% of ITT population)
Change in WHO functional class: +2 classes [1]: 0 (0.0) subjects (% of ITT population)
Change in WHO functional class: no change [1]: 44 (65.7) subjects (% of ITT population)
Change in WHO functional class: −1 class [1]: 15 (22.4) subjects (% of ITT population)
Change in WHO functional class: −2 classes [1]: 5 (7.5) subjects (% of ITT population)
placebo-adjusted 6MWD increase from baseline at Week 12 (WHO class I/II subgroup, 5 mg once daily): +25.6 m
placebo-adjusted 6MWD increase from baseline at Week 12 (WHO class I/II subgroup, 10 mg once daily): +42.0 m
placebo-adjusted 6MWD increase from baseline at Week 12 (WHO class III/IV subgroup, 5 mg once daily): +34.1 m
placebo-adjusted 6MWD increase from baseline at Week 12 (WHO class III/IV subgroup, 10 mg once daily): +56.9 m
placebo-adjusted BDI at Week 12 (combined 5 mg and 10 mg groups): −0.6
Clinical worsening event: Atrial septostomy [2]: 0 (0.0) subjects (% of ITT population)
Clinical worsening event: Death [2]: 2 (1.5) subjects (% of ITT population)
Clinical worsening event: Escape criteria [2]: 2 (1.5) subjects (% of ITT population)
Clinical worsening event: Hospitalization for PAH [2]: 4 (3.0) subjects (% of ITT population)
Clinical worsening event: Lung transplantation [2]: 0 (0.0) subjects (% of ITT population)
Clinical worsening event: Study discontinuation due to addition of PAH treatment [2]: 1 (0.7) subjects (% of ITT population)
Clinical worsening: Total subjects with ≧1 event [2]: 6 (4.5) subjects (% of ITT population)
Change in 6MWD from baseline to Week 12, mean (combined 5 mg and 10 mg groups, ITT population): +33.2 meters
subjects who deteriorated by at least 1 WHO class [3]: 3.0%
subjects who had an improvement of 2 WHO classes [3]: 4.5%
Change in SF-36 Bodily pain, mean (SD) [4]: +0.42 ± 12.81
Change in SF-36 General health, mean (SD) [4]: +1.66 ± 8.74
Change in SF-36 Mental component summary, mean (SD) [4]: +1.30 ± 11.89
Change in SF-36 Mental health, mean (SD) [4]: +1.18 ± 11.23
Change in SF-36 Physical component summary, mean (SD) [4]: +3.34 ± 8.40
Change in SF-36 Role-emotional, mean (SD) [4]: +2.19 ± 15.71
Change in SF-36 Role-physical, mean (SD) [4]: +5.45 ± 10.47
Change in SF-36 Social functioning, mean (SD) [4]: +2.61 ± 12.78
Change in SF-36 Vitality, mean (SD) [4]: +3.71 ± 10.11
Change in WHO functional class: +1 class [4]: 4 (3.0) subjects (% of ITT population)
Change in WHO functional class: +2 classes [4]: 0 (0.0) subjects (% of ITT population)
Change in WHO functional class: no change [4]: 91 (67.9) subjects (% of ITT population)
Change in WHO functional class: −1 class [4]: 33 (24.6) subjects (% of ITT population)
Change in WHO functional class: −2 classes [4]: 6 (4.5) subjects (% of ITT population)
placebo-adjusted 6MWD increase from baseline at Week 12 (female subjects, 5 mg once daily): +30.9 m
placebo-adjusted 6MWD increase from baseline at Week 12 (female subjects, 10 mg once daily): +57.7 m
placebo-adjusted 6MWD increase from baseline at Week 12 (idiopathic PAH subgroup, 5 mg once daily): +42.9 m
placebo-adjusted 6MWD increase from baseline at Week 12 (idiopathic PAH subgroup, 10 mg once daily): +56.9 m
placebo-adjusted 6MWD increase from baseline at Week 12 (male subjects, 5 mg once daily): +19.9 m
placebo-adjusted 6MWD increase from baseline at Week 12 (male subjects, 10 mg once daily): +13.1 m
placebo-adjusted 6MWD increase from baseline at Week 12 (non-idiopathic PAH subgroup, 5 mg once daily): +10.2 m
placebo-adjusted 6MWD increase from baseline at Week 12 (non-idiopathic PAH subgroup, 10 mg once daily): +43.0 m
placebo-adjusted 6MWD increase from baseline at Week 12 (subjects not receiving calcium channel blockers, 5 mg once daily): +38.7 m
placebo-adjusted 6MWD increase from baseline at Week 12 (subjects not receiving calcium channel blockers, 10 mg once daily): +67.9 m
reduction in the probability of clinical worsening (hazard ratio) compared to placebo (subjects receiving ambrisentan (combined group), 12 weeks): 50%
subjects hospitalized for PAH (subjects receiving ambrisentan (combined), 12 weeks): 3.0%
placebo-adjusted 6MWD increase from baseline at Week 12 (subjects receiving calcium channel blockers, 5 mg once daily): +15.1 m
placebo-adjusted 6MWD increase from baseline at Week 12 (subjects receiving calcium channel blockers, 10 mg once daily): +19.6 m
change from baseline in mean 6MWD at Week 12 (5 mg once daily): +21.1 m
change from baseline in mean 6MWD at Week 12 (10 mg once daily): +48.0 m
